Tests used:
[1] = Acute toxicity test; conditions: mouse, in vivo, ip
Procedure: (§1) (1) Acute toxicity test: • (i) To male SPF-ICR mice of 5 weeks old (supplied by Charles River Co.) were intraperitoneally administered PQQ·2Na and OPQs in the dosages of 20, 40, 80, 160 and 200 mg/kg body weight of mouse, respectively and they were bred at 25°C for 14 days. OPQ, 1-methylpropyl OPQ, 2-methylthioethyl OPQ, and benzyl OPQ were used as the OPQs. One group consisted of 8 mice. […] One group consisted of 8 mice. […] They were bred at 25°C for 14 days. One group consisted of eight mice. […] (2) Toxicity to kidney (i) Toxicity to kidney determined by urine examination: In the same manner as in the acute toxicity test, PQQ·2Na and OPQs were respectively intraperitoneally administered to mice and these mice were bred. Urine was collected every day and concentration of glucose in urine was obtained using Uristex II (manufactured by Miles·Sankyo Co.). […]

[2] = tested on: male SPF-ICR mice; experiment: Acute toxicity test
Procedure: as §1

[3] = biological target: aldose reductase of kidney (Canis lupus familiaris, UniProt A0A8I3P2L6); experiment: Inhibitory effect on aldose reductase of kidney; type: biochemical, dog; conditions: read-out: Degree of inhibition for aldose reductase (%)
Procedure, shortened: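 Aldose reductase was purified from dog kidney medulla. Activity was measured as NADPH consumption (A340 decrease) with DL-glyceraldehyde substrate and 3mM NADPH stock, in 0.1M phosphate buffer pH 6.2 at 25°C. One unit consumes 1 µmole NADPH/min.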

[4] = tested on: kidney; experiment: Toxicity to kidney determined by blood examination; type: in vivo, mice; conditions: serum
Procedure, shortened: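 One day after dosing, mice fasted 18 h with water only, then blood taken. Serum glucose, urea nitrogen and creatinine measured by dry-chemistry slides; values are means of eight mice.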

[5] = tested on: carbon tetrachloride (CCl4)-induced liver diseases; experiment: Pharmacological activity on carbon tetrachloride-induced liver diseases; type: in vivo, SD rats; conditions: CCl4 1 ml/kg rat; for GPT: Table 26: CCl4 only 1521, no administration 24; for Total bilirubin: Table 26: CCl4 only 1.5, no administration 0.9; for GOT: Table 26: CCl4 only 3266, no administration 140
Procedure: Twentyfive SD rats (male, 7 weeks old, body weight: about 220 g; supplied by Japan Charles River Co.) were divided to five groups (A-E) each consisting of five rats.
All rats were fasted for 16 hours and 1.1 ml of solutions containing 0.4 mg/ml, 1.0 mg/ml and 2.0 mg/ml of OPQ were intraperitoneally administered to the rats of groups C, D and E, respectively and furthermore, after 40 minutes, OPQ in the same dosage as above was intraperitoneally administered, respectively. In these cases, OPQ was used as a solution in physiological saline. To the rats of group B was intraperitoneally administered 1.1 ml of physiological saline in place of the OPQ solution.
Furthermore, after 20 minutes, 2.2 ml of 10 % carbon tetrachloride solution (in olive oil) was administered to stomach of the rats of groups B-E. Neither OPQ nor carbon tetrachloride was administered to the rats of group A.
After 24 hours from administration of carbon tetrachloride, blood was collected from abdominal aorta and serum was obtained by centrifugal separation.
GPT, GOT and amount of total bilirubin were measured by clinical examination reagent (trademark: FUJI Dry Chemslide manufactured by Fuji Photo Film Co., Ltd.). The results are shown in Table 26 by average value of five rats.

[6] = 2 mg/kg rat twice intraperitoneally
[7] = 5 mg/kg rat twice intraperitoneally
[8] = 10 mg/kg rat twice intraperitoneally

O=C(O)c1cc(C(=O)O)c2c(n1)c1ncoc1c1cc(C(=O)O)[nH]c12 [OPQ, oxazopyrroloquinoline]
LD50 at 336 h [1]: ~1000 mg/kg
death of mice ([2]; 0.1 - 0.4 g/kg intraperitoneally, 8 mice per group, 14 days): All mice survived
death of mice ([2]; 0.8 g/kg intraperitoneally, 8 mice, 14 days): two mice died
death of mice ([2]; 1.2 g/kg intraperitoneally, 8 mice, 14 days): six mice died
death of mice ([2]; mouse, in vivo): no mice died
death of mice ([2]; orally 1.0 g, 1.5 g or 2.0 g/kg mouse, 8 mice per group, 14 days): No mice died
inhibition at 0.1 µM ([3]; concentration 1x10^-7 M): 51.9%
inhibition at 0.2 µM ([3]; concentration 2x10^-7 M): 62.1%
inhibition at 0.05 µM ([3]; concentration 5x10^-8 M): 39.3%
Creatinine ([4]; 40 mg/kg mouse intraperitoneally, Table 2, no administration 0.8): 0.7 mg/dL
Urea nitrogen ([4]; 40 mg/kg mouse intraperitoneally, Table 2, no administration 24): 25 mg/dL
Glucose ([4]; 40 mg/kg mouse intraperitoneally, Table 2, no administration 78): 90 mg/dL
Creatinine ([4]; 80 mg/kg mouse intraperitoneally, Table 2, no administration 0.8): 0.8 mg/dL
Urea nitrogen ([4]; 80 mg/kg mouse intraperitoneally, Table 2, no administration 24): 23 mg/dL
Glucose ([4]; 80 mg/kg mouse intraperitoneally, Table 2, no administration 78): 86 mg/dL
Creatinine ([4]; 150 mg/kg mouse intraperitoneally, Table 3, no administration 0.7): 0.8 mg/dL
Urea nitrogen ([4]; 150 mg/kg mouse intraperitoneally, Table 3, no administration 28): 32 mg/dL
Glucose ([4]; 150 mg/kg mouse intraperitoneally, Table 3, no administration 105): 106 mg/dL
Creatinine ([4]; 160 mg/kg mouse intraperitoneally, Table 2, no administration 0.8): 0.7 mg/dL
Urea nitrogen ([4]; 160 mg/kg mouse intraperitoneally, Table 2, no administration 24): 27 mg/dL
Glucose ([4]; 160 mg/kg mouse intraperitoneally, Table 2, no administration 78): 90 mg/dL
Creatinine ([4]; 200 mg/kg mouse intraperitoneally, Table 2, no administration 0.8): 0.8 mg/dL
Urea nitrogen ([4]; 200 mg/kg mouse intraperitoneally, Table 2, no administration 24): 28 mg/dL
Glucose ([4]; 200 mg/kg mouse intraperitoneally, Table 2, no administration 78): 85 mg/dL
Creatinine ([4]; 300 mg/kg mouse intraperitoneally, Table 3, no administration 0.7): 0.8 mg/dL
Urea nitrogen ([4]; 300 mg/kg mouse intraperitoneally, Table 3, no administration 28): 29 mg/dL
Glucose ([4]; 300 mg/kg mouse intraperitoneally, Table 3, no administration 105): 80 mg/dL
Creatinine ([4]; 400 mg/kg mouse intraperitoneally, Table 3, no administration 0.7): 0.8 mg/dL
Urea nitrogen ([4]; 400 mg/kg mouse intraperitoneally, Table 3, no administration 28): 30 mg/dL
Glucose ([4]; 400 mg/kg mouse intraperitoneally, Table 3, no administration 105): 94 mg/dL
Creatinine ([4]; 600 mg/kg mouse intraperitoneally, Table 3, no administration 0.7): 0.8 mg/dL
Urea nitrogen ([4]; 600 mg/kg mouse intraperitoneally, Table 3, no administration 28): 34 mg/dL
Glucose ([4]; 600 mg/kg mouse intraperitoneally, Table 3, no administration 105): 74 mg/dL
GPT ([5]; 2 mg/kg rat twice intraperitoneally, serum after 24 hours): 1057 U/l
Total bilirubin [5, 6]: 1.2 mg/dL
GOT [5, 6]: 2402 U/l
Total bilirubin [5, 7]: 1.2 mg/dL
GPT [5, 7]: 553 U/l
GOT [5, 7]: 1892 U/l
Total bilirubin [5, 8]: 1.1 mg/dL
GPT [5, 8]: 650 U/l
GOT [5, 8]: 1907 U/l
